{"source": "patent US20070197432A1", "about": "“Peptides for preventing, diagnosing and treating animal and/or human leptospirosis” (priority 2002, published 2007)", "key": {"PP peptide": {"tested_on": "PP peptide", "assay": "Immunization of rabbit with noncoupled PP peptide, anti-PP IgG ELISA", "type": "in vivo", "experimental": "To test the immunogenicity of the PP peptide alone, immunization with the PP peptide in the rabbit model was carried out, with incomplete Freund's adjuvant being added to each injection.\nMore precisely, two injections of 400 μg of PP peptide with incomplete Freund's adjuvant (v/v) were administered in a total volume of 2 ml.\nThe two injections were administered subcutaneously, two weeks apart. The rabbit serum was recovered two weeks after the second injection. The anti-PP antibodies were titered on this serum.\nThe anti-PP antibodies were titered in the rabbit by the ELISA technique described above, with a biotinylated anti-rabbit antiglobulin (BioAtlantic) at 1/3000 and peroxidase-coupled streptavidin as visualizing agent (RPN1231, Amersham pharmacia biotech)\nThe results of the anti-PP IgG antibody response, expressed as corrected OD (OD at D28, therefore after the second immunization, minus the OD at D0), of the immunization trial with the PP peptide are given in FIG. 3."}, "[1]": {"tested_on": "Leptospira interrogans sl serovar canicola", "assay": "Trial 1: gerbils immunized with PP-KLH, 10^−2.5 canicola challenge", "type": "in vivo, gerbil", "conditions": "Experiment 1, survival", "experimental": "An immunization/challenge protocol was carried out in order to evaluate the protection that can be provided by the PP peptide (SEQ ID No. 1) coupled to the KLH protein.\nThis construct is administered subcutaneously without adjuvant, with PBS as a negative control (batch 2).\nBatch 1: 10 gerbils, 2 injections of 30 μg of PP-KLH in 300 μl, subcutaneously.\nBatch 2: 10 gerbils, 2 injections of PBS in 300 μl.\nThe two injections in a volume of 300 μl were administered subcutaneously, two weeks apart. A challenge by intraperitoneal injection of 0.5 ml of a canicola culture with a titer of 90 to 100 TU (turbidimetry) diluted to 10^−2.5 was administered two weeks after the second injection. • Antigenic response: Monitoring by ELISA of the immune response of the gerbils against the PP peptide"}, "[2]": {"tested_on": "Leptospira interrogans sl serovar canicola", "assay": "Trial 2: gerbils immunized with PP-KLH or PP, 10^−2 canicola challenge", "type": "in vivo, gerbil", "parameters": "Mortality rate / Survival rate: unit not given here", "experimental": "An immunization/challenge trial was carried out in order to evaluate the protection that can be provided by the PP peptide (SEQ ID No. 1) coupled or not coupled to the KLH protein.\nThis construct is administered subcutaneously without adjuvant, and PBS is administered by the same route as the negative control (batch 3). • Batch 1: 12 gerbils, 2 injections of 30 μg of PP-KLH in 300 μl. • Batch 2: 12 gerbils, 2 injections of 30 μg of PP in 300 μl. • Batch 3: 15 gerbils, 2 injections of PBS in 300 A1.\nThe two injections in a volume of 300 μl were administered subcutaneously, two weeks apart. A challenge by intraperitoneal injection of 0.5 ml of a serovar canicola leptospiral culture with a titer of 90 to 100 TU (turbidimetry) diluted to 10^−2 was administered three weeks after the second injection."}}, "note": "No end group written: not given here."}
{"sequence": "KAKPVQKLDDDDDGDDTYKEERHNK [PP peptide, 25 amino acid peptide, fragment aa153-aa177 of the PPL protein of Leptospira interrogans]", "values": [{"measurement": "serum dilution at which response against the PP peptide can still be detected", "setting": "PP peptide; 2 s.c. injections of 400 μg with incomplete Freund's adjuvant, D28", "value": "≥ 102 400"}, {"measurement": "immunogenicity", "setting": "PP peptide; peptide alone", "value": "very immunogenic"}, {"measurement": "p, log-rank test versus control", "setting": "[1]", "value": "< 0.07"}, {"measurement": "Mortality rate", "setting": "[2]; 10^−2 canicola challenge", "value": 33.3}, {"measurement": "Survival rate", "setting": "[2]; 10^−2 canicola challenge", "value": 66.7}, {"measurement": "mortality in the group (dead/number)", "setting": "[2]; 10^−2 canicola challenge", "value": "4/12"}, {"measurement": "gerbils at challenge", "setting": "[2]; 10^−2 canicola challenge, D0", "value": 12}, {"measurement": "mortality of gerbils (dead/number)", "setting": "[2]; 10^−2 canicola challenge, D4", "value": "0/12"}, {"measurement": "mortality of gerbils (dead/number)", "setting": "[2]; 10^−2 canicola challenge, D5", "value": "0/12"}, {"measurement": "mortality of gerbils (dead/number)", "setting": "[2]; 10^−2 canicola challenge, D6", "value": "0/12"}, {"measurement": "mortality of gerbils (dead/number)", "setting": "[2]; 10^−2 canicola challenge, D7", "value": "0/12"}, {"measurement": "mortality of gerbils (dead/number)", "setting": "[2]; 10^−2 canicola challenge, D8", "value": "2/12"}, {"measurement": "mortality of gerbils (dead/number)", "setting": "[2]; 10^−2 canicola challenge, D9", "value": "2/10"}, {"measurement": "mortality of gerbils (dead/number)", "setting": "[2]; 10^−2 canicola challenge, D10", "value": "0/8"}, {"measurement": "mortality of gerbils (dead/number)", "setting": "[2]; 10^−2 canicola challenge, D11", "value": "0/8"}, {"measurement": "mortality of gerbils (dead/number)", "setting": "[2]; 10^−2 canicola challenge, D12", "value": "0/8"}, {"measurement": "mortality of gerbils (dead/number)", "setting": "[2]; 10^−2 canicola challenge, D13", "value": "0/8"}, {"measurement": "mortality of gerbils (dead/number)", "setting": "[2]; 10^−2 canicola challenge, D14", "value": "0/8"}, {"measurement": "mortality of gerbils (dead/number)", "setting": "[2]; 10^−2 canicola challenge, D15", "value": "0/8"}, {"measurement": "mortality of gerbils (dead/number)", "setting": "[2]; 10^−2 canicola challenge, D16", "value": "0/8"}, {"measurement": "mortality of gerbils (dead/number)", "setting": "[2]; 10^−2 canicola challenge, D17", "value": "0/8"}, {"measurement": "mortality of gerbils (dead/number)", "setting": "[2]; 10^−2 canicola challenge, D28", "value": "0/8"}, {"measurement": "p, log-rank test versus control", "setting": "[2]; Experiment 2, survival", "value": "< 0.02"}, {"measurement": "χ^2, log-rank test versus control", "setting": "[2]; Experiment 2, survival", "value": 5.64}, {"measurement": "p, log-rank test versus control", "setting": "[2]; Experiment 2, survival, listed as PP", "value": "<2.10^−2"}]}
